Data on one molecule can be found in US12281084B2, “Acetyl-CoA synthetase 2 (ACSS2) inhibitors and methods using same” (The Wistar Institute, priority 2019, dated 2025).

Assay [1] deals with BT474 tumors. The assay can be described thus: In vivo 13C2-acetate tracing in BT474 tumors. Also noted: species or system mouse. The protocol: All metabolomic experiments were performed in serum-like modified Eagle's medium (SMEM). SMEM contains 54 different nutrients that are found in the bloodstream at concentrations that are physiologically relevant to humans. SMEM was supplemented with 10% or 1% fetal bovine serum (FBS; Life Technologies). Cells were grown in normoxia (atmospheric oxygen) or hypoxia (1% oxygen) while being incubated in uniformly labeled ^13C2-acetate (0.100 mM; Cambridge Isotope Laboratories). Lengths of incubation are described in the figure legends. For extraction of metabolites from cultured cells, SMEM medium was aspirated and cells were washed once in ice-cold PBS. Metabolites were extracted by adding a solution of LC-MS grade methanol/acetonitrile/water (5:3:2) to the well. Plates were incubated at 4° C. for 5 minutes on a rocker and then the extraction solution was collected. The metabolite extract was cleared by centrifugation at 15,000×g for 10 minutes at 4° C. Supernatants were transferred to LC-MS silanized glass vials with PTFE caps and either run immediately on the LC-MS or stored at −80° C. […]
LC-MS analysis was performed on a Q Exactive Hybrid Quadrupole-Orbitrap HF-X MS (ThermoFisher Scientific) equipped with a HESI II probe and coupled to a Vanquish Horizon UHPLC system (ThermoFisher Scientific). […] Samples were analyzed in full MS scan with polarity switching at scan range 65 to 975 m/z; 120,000 resolution; automated gain control (AGC) target of 1E6; and maximum injection time (max IT) of 100 milliseconds. Identification and quantitation of metabolites was performed using an annotated compound library and TraceFinder 4.1 software. […]
On-target activity of VY-3-135 in the tumor was probed. […] Tumor lipid extracts were saponified and the resulting fatty acids were analyzed by LC-MS. Likewise, polar metabolites were extracted from matching tumor samples and analyzed by LC-MS. […] Isotopologs ≥M+10 were not detected in tumors from VY-3-135 treated mice.

The test system of the next assay is Brpkp110 tumors. Put plainly: Brpkp110 tumor xenograft growth in NSG mice. The note with it: daily intraperitoneal injection for two weeks, 100 mg/kg (FIG. 5E). Format: in vivo, mouse. The protocol: For BT474 mouse xenograft studies 5-6 week old female NSG […] were anesthetized and one 17β-estradiol 60 day release pellet (Innovative Research of America Cat. No. SE-121) was injected subcutaneously via 10 gauge precision trochar into the lateral side of the neck between the ear and shoulder. 24 hours later 10^5 BT474 luciferase positive cells in 100 μl PBS:matrigel (growth factor reduced) were injected subcutaneously into the hind limb. For A7C11 and Brpkp110 xenografts, 5×10^5 cells in 100 μl PBS:Matrigel (growth factor reduced Corning Cat. No. 356231) were subcutaneously injected into the hindlimb of 5-6 week old female NSG mice […]. Following tumor establishment in all groups, mice were randomized and treated intraperitoneally (IP) daily with vehicle (10% DMSO, 10% absolute ethanol, 20% solutol, 60% water containing 0.5% Tween20) or 100 mg/kg VY-3-135 as indicated in the figure legend. Tumors were measured thrice weekly via caliper measurement and tumor volume calculated as (L×W^2)/2 (where L is the longer of the 2 measurements). At the study conclusion all tumors were resected and processed fresh or flash frozen in liquid nitrogen and stored at −80° C. for downstream analysis.
Tumor bearing mice were given daily intraperitoneal injection of VY-3-135 for two weeks. […]

Assay [2] concerns BT474 tumors. The assay can be described thus: QuantSeq 3' mRNA sequencing of BT474 tumor tissue. Format: in vivo, mouse. Particulars: vehicle vs treated mice. As to the method:
QuantSeq 3′ mRNA sequencing of BT474 tumor tissue from vehicle and VY-3-135 treated mice was performed. Similar to in vitro results in FIG. 3, the effects of VY-3-135 on gene transcription in vivo were minimal. […] Furthermore, of the 248 differentially regulated genes only 7 changed by more than 2-fold and none by more than 2.5-fold (FIGS. 14A-14B).

SMILES strings stand for the structures. Entries after “also recorded” stand apart in the source; their conditions may differ.

For the molecule `CCn1c(C(O)(c2ccccc2)c2ccccc2)nc2ccc(C(=O)NC[C@@H](C)O)cc21` [VY-3-135, (R)-1-ethyl-2-(hydroxydiphenylmethyl)-N-(2-hydroxypropyl)-1H-benzo[d]imidazole-6-carboxamide], in the assay with BT474 tumors [1] (BT474 tumors (FIG. 6D)), the “13C2-acetate labeling of citrate in tumors” value is “no effect was observed”. The “palmitate isotopologs ≥M+10 in tumors” value with BT474 tumors [1] (BT474 tumors from treated mice) is listed as “not detected”. For the same molecule, the “13C labeling of palmitate in tumors” value in the assay on BT474 tumors [1] (BT474 tumors, 13C2-acetate in drinking water 48 hours (FIG. 6C)) is on record as “caused a significant decrease in the ^13C labeling of palmitate”. Moreover, the Brpkp110 tumor growth entry in the assay on Brpkp110 tumors is “causes a significant decrease in Brpkp110 tumor growth; also recorded: caused significant reduction in Brpkp110 tumor growth”. The “effects on gene transcription in vivo” value with BT474 tumors [2] is given as “minimal”.
